pKd, pKi: −log10 of the molar value. Calls of active or inactive are those of the source. No cut-off for these calls is given here.
How the values were obtained:
[1] = biological target: T1, Chitinase B (Serratia marcescens) (UniProt P11797); experiment: Inhibition of Serratia marcescens chitinase b catalytic domain overexpressed in Escherichia coli BL21(DE3) cells at 1 uM using 4MU-(GlcNAc)2 as substrate after 30 mins by fluorescence based microplate reader analysis
T1 sequence (whole entry): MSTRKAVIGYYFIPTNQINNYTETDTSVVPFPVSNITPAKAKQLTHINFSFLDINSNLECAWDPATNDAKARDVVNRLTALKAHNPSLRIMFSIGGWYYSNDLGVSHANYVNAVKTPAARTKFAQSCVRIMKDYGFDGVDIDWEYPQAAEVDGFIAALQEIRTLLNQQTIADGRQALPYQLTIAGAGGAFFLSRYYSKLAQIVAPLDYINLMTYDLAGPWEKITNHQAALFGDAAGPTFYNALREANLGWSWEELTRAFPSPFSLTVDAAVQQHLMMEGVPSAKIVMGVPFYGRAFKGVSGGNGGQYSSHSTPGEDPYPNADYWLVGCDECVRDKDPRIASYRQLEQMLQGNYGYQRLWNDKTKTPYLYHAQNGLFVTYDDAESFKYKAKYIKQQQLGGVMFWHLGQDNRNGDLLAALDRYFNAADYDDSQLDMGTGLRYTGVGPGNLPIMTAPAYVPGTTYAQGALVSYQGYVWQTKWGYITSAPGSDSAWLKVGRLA

[2] = biological target: Chitinase (Ostrinia furnacalis) (UniProt Q4AE59); experiment: Inhibition of Ostrinia furnacalis chitinase h catalytic domain overexpressed in Pichia pastoris at 1 uM using 4MU-(GlcNAc)2 as substrate after 30 mins by fluorescence based microplate reader analysis
Chain of Chitinase (Ostrinia furnacalis) (Q4AE59 as listed by the source): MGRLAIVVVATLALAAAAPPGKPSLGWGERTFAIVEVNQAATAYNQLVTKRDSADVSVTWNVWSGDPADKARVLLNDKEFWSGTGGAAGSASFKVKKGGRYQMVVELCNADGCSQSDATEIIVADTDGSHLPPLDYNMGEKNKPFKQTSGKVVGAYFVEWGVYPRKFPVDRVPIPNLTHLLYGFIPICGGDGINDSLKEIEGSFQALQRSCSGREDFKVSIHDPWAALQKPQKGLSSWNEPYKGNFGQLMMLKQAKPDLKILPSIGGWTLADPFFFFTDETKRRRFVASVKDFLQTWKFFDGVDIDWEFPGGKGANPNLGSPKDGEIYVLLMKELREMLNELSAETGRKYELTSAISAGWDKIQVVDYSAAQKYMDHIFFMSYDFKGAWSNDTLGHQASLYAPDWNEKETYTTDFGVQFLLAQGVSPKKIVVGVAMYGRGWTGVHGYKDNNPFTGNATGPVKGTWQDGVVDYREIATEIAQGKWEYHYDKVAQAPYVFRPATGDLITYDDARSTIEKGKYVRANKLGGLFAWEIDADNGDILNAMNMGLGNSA

[3] = biological target: T2, Acidic mammalian chitinase (Homo sapiens, UniProt Q9BZP6); experiment: Inhibition of human acidic mammalian chitinase catalytic domain overexpressed in Pichia pastoris at 10 uM using 4MU-(GlcNAc)2 as substrate after 30 mins by fluorescence based microplate reader analysis
Target sequence in this assay (Q9BZP6 22-476 limits assumed): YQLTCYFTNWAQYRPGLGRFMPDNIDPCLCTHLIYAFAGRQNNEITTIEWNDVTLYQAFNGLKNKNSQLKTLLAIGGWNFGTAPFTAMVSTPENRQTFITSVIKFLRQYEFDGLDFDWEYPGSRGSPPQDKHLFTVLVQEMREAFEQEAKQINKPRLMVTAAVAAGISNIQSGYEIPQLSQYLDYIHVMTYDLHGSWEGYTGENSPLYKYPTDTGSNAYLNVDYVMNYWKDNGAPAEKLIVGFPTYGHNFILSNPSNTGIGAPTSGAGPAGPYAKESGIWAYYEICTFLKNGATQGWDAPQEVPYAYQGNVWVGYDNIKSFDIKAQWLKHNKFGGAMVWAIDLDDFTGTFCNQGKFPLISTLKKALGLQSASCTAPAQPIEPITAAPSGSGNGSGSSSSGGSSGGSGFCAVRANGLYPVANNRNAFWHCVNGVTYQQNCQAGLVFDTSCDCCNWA

Chitotriosidase-1 [4] = biological target: T3, Chitotriosidase-1 (Homo sapiens, UniProt Q13231); experiment: Inhibition of human CHIT1 catalytic domain overexpressed in Pichia pastoris at 10 uM using 4MU-(GlcNAc)2 as substrate after 30 mins by fluorescence based microplate reader analysis
Target sequence in this assay (Q13231 22-466 limits assumed): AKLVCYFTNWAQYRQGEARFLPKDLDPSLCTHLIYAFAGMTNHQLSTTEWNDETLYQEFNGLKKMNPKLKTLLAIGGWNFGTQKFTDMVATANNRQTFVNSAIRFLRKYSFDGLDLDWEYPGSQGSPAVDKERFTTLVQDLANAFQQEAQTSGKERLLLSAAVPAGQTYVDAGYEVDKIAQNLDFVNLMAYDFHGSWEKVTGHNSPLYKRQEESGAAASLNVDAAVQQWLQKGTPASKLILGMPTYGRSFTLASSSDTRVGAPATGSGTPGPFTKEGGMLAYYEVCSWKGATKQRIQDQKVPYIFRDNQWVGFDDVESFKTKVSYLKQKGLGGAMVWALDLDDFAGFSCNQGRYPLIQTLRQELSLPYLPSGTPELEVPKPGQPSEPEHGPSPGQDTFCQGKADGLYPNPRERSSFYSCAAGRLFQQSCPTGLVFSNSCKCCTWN

Chitinase B [5] = biological target: T4, Chitinase B (Serratia marcescens, UniProt P11797); experiment: Binding affinity to Serratia marcescens chitinase b catalytic domain overexpressed in Escherichia coli BL21(DE3) cells by isothermal titration calorimetry
T4 sequence (P11797 whole entry): T1 sequence (whole entry)

[6] = biological target: T1, Chitinase B (Serratia marcescens); experiment: Binding affinity to Serratia marcescens chitinase b catalytic domain overexpressed in Escherichia coli BL21(DE3) cells assessed as association constant by isothermal titration calorimetry
Chitotriosidase-1 [7] = biological target: T3, Chitotriosidase-1; experiment: Binding affinity to human CHIT1 catalytic domain overexpressed in Pichia pastoris assessed by isothermal titration calorimetry
Target sequence in this assay (Q13231 whole entry, the tested form may be a part): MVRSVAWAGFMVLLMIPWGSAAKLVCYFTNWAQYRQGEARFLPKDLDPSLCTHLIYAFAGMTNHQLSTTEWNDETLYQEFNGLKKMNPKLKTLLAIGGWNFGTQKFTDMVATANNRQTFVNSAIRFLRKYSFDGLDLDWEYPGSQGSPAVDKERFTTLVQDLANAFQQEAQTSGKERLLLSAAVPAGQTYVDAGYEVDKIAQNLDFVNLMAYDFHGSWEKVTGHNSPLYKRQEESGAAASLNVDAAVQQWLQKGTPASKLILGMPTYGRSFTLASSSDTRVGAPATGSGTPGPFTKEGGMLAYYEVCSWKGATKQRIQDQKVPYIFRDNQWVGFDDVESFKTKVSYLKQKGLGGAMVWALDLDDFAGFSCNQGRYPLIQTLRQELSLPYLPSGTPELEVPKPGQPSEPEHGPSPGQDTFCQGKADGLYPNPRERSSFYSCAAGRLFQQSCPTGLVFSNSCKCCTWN

Chitotriosidase-1 [8] = biological target: T3, Chitotriosidase-1; experiment: Binding affinity to human CHIT1 catalytic domain overexpressed in Pichia pastoris assessed as association constant by isothermal titration calorimetry
Target sequence in this assay (Q13231 22-466 limits assumed): as the sequence (Q13231 22-466 limits assumed) above

Chitinase B [9] = biological target: T4, Chitinase B; experiment: Inhibition of Serratia marcescens chitinase b catalytic domain overexpressed in Escherichia coli BL21(DE3) cells using 4MU-(GlcNAc)2 as substrate after 30 mins by fluorescence based microplate reader analysis
Chitinase [10] = biological target: T5, Chitinase (Ostrinia furnacalis, UniProt Q4AE59); experiment: Inhibition of Ostrinia furnacalis chitinase h catalytic domain overexpressed in Pichia pastoris using 4MU-(GlcNAc)2 as substrate after 30 mins by fluorescence based microplate reader analysis
T5 sequence (Q4AE59 whole entry, the tested form may be a part): as the sequence (Q4AE59 as listed by the source) above

[11] = biological target: Acidic mammalian chitinase (Mus musculus, UniProt Q91XA9); experiment: Inhibition of mouse acidic mammalian chitinase catalytic domain overexpressed in Pichia pastoris using 4MU-(GlcNAc)2 as substrate after 30 mins by fluorescence based microplate reader analysis
Chain of Acidic mammalian chitinase (Mus musculus, UniProt Q91XA9) (Q91XA9 whole entry, the tested form may be a part): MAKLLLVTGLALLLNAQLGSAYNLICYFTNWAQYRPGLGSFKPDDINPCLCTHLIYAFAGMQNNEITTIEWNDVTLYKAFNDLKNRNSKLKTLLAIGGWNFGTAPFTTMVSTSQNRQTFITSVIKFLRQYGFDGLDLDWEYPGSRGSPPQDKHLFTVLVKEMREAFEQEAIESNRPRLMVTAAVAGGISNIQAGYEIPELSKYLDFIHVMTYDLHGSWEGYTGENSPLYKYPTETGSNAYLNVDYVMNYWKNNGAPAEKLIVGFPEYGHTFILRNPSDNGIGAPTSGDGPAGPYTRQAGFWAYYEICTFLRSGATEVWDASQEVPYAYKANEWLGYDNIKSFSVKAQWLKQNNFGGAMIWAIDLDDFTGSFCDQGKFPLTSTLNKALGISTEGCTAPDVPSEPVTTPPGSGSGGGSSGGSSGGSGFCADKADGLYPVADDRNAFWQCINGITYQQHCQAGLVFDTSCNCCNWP

Chitotriosidase-1 [12] = biological target: Chitotriosidase-1 (Mus musculus, UniProt Q9D7Q1); experiment: Inhibition of mouse CHIT1 catalytic domain overexpressed in Pichia pastoris using 4MU-(GlcNAc)2 as substrate after 30 mins by fluorescence based microplate reader analysis
Chain of Chitotriosidase-1 (Mus musculus, UniProt Q9D7Q1) (Q9D7Q1 whole entry, the tested form may be a part): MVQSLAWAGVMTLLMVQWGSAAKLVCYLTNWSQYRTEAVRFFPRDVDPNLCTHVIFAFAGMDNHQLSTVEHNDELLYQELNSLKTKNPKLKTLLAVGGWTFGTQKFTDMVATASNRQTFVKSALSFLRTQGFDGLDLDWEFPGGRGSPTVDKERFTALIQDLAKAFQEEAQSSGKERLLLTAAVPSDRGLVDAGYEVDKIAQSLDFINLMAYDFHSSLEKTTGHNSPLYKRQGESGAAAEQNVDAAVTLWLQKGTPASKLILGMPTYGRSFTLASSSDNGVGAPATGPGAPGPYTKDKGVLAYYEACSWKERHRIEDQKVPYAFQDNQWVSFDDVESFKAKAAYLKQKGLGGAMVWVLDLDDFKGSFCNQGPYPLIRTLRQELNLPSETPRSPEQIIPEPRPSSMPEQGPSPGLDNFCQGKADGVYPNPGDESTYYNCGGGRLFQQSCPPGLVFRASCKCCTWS

[13] = biological target: T2, Acidic mammalian chitinase; experiment: Inhibition of human acidic mammalian chitinase catalytic domain overexpressed in Pichia pastoris using 4MU-(GlcNAc)2 as substrate after 30 mins by fluorescence based microplate reader analysis
Target sequence in this assay (Q9BZP6 whole entry, the tested form may be a part): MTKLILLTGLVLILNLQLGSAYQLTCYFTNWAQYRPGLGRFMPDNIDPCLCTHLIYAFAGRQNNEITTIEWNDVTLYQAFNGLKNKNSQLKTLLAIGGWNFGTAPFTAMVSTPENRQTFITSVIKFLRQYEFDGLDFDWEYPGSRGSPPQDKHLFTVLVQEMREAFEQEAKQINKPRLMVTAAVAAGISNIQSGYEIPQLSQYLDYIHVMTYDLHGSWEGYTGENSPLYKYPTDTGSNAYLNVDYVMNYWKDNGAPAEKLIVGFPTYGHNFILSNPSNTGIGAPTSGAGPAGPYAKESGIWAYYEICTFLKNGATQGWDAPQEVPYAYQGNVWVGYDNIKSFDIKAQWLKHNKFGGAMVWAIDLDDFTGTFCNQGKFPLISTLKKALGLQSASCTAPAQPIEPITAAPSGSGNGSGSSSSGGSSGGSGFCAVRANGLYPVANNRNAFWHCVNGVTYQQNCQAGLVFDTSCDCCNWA

Chitotriosidase-1 [14] = biological target: T3, Chitotriosidase-1; experiment: Inhibition of human CHIT1 catalytic domain overexpressed in Pichia pastoris using 4MU-(GlcNAc)2 as substrate after 30 mins by fluorescence based microplate reader analysis
Target sequence in this assay (Q13231 whole entry, the tested form may be a part): as the sequence (Q13231 whole entry, the tested form may be a part) above

Chitinase [15] = biological target: T5, Chitinase; experiment: Binding affinity to Ostrinia furnacalis chitinase h catalytic domain overexpressed in Pichia pastoris by isothermal titration calorimetry
Chitotriosidase-1 [16] = biological target: T3, Chitotriosidase-1; experiment: Inhibition of human CHIT1 catalytic domain overexpressed in Pichia pastoris at 50 uM using 4MU-(GlcNAc)2 as substrate after 30 mins by fluorescence based microplate reader analysis relative to control
Target sequence in this assay (Q13231 22-466 limits assumed): as the sequence (Q13231 22-466 limits assumed) above

Mus musculus [17] = experiment: In vivo inhibition of human chitinase in C57BL/6 mouse assesed as reduction in bleomycin-induced chitinase level in BALF at 2 ug/mouse, ip administered for 11 days and measured on day 12 by necropsy analysis; format: functional
[18] = biological target: Chitotriosidase-1 (Mus musculus) (UniProt Q9D7Q1); experiment: Inhibition of chitinase in mouse BALF at 40 ug using 4-MU-(GlcNAc)2 substrate as substrate after 15 mins relative to control
Chain of Chitotriosidase-1 (Mus musculus) (Q9D7Q1 22-464 limits assumed): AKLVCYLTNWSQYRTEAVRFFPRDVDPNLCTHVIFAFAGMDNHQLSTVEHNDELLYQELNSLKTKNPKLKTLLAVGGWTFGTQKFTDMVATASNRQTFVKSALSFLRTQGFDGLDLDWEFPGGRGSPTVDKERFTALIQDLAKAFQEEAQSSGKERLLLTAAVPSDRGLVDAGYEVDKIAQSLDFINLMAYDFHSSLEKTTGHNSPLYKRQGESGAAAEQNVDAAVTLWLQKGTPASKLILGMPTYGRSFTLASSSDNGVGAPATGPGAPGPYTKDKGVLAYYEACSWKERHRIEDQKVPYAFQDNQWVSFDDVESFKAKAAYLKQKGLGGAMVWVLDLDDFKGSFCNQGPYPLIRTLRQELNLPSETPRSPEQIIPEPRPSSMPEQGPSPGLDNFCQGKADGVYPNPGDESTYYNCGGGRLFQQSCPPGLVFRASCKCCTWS

[19] = biological target: Chitotriosidase-1 (Mus musculus) (UniProt Q9D7Q1); experiment: Inhibition of chitinase in mouse BALF at 1 ug using 4-MU-(GlcNAc)2 substrate as substrate after 15 mins relative to control
Mus musculus [20] = experiment: Antifibrotic activity in bleomycin-induced C57BL/6 mouse model of pulmonary fibrosis assessed as effect on Chit1 expression at 2 ug/mouse, ip administered for 11 days and measured on day 12 post treatment by RT-qPCR analysis; format: functional, organism-based
Mus musculus [21] = experiment: Antifibrotic activity in bleomycin-induced C57BL/6 mouse model of pulmonary fibrosis assessed as effect on Areg expression at 2 ug/mouse, ip administered for 11 days and measured on day 12 post treatment by RT-qPCR analysis; format: functional, organism-based
Mus musculus [22] = experiment: Antifibrotic activity in bleomycin-induced C57BL/6 mouse model of pulmonary fibrosis assessed as effect on TGFbeta expression at 2 ug/mouse, ip administered for 11 days and measured on day 12 post treatment by RT-qPCR analysis; format: functional, organism-based
Mus musculus [23] = experiment: Antifibrotic activity in bleomycin-induced C57BL/6 mouse model of pulmonary fibrosis assessed as effect on IL33 expression at 2 ug/mouse, ip administered for 11 days and measured on day 12 post treatment by RT-qPCR analysis; format: functional, organism-based
Mus musculus [24] = experiment: Antifibrotic activity in bleomycin-induced C57BL/6 mouse model of pulmonary fibrosis assessed as effect on IL5 expression at 2 ug/mouse, ip administered for 11 days and measured on day 12 post treatment by RT-qPCR analysis; format: functional, organism-based
Mus musculus [25] = experiment: Antifibrotic activity in bleomycin-induced C57BL/6 mouse model of pulmonary fibrosis assessed as effect on IL13 expression at 2 ug/mouse, ip administered for 11 days and measured on day 12 post treatment by RT-qPCR analysis; format: functional, organism-based
Mus musculus [26] = experiment: Antifibrotic activity in bleomycin-induced C57BL/6 mouse model of pulmonary fibrosis assessed as increase in number of monocytes in lungs at 2 ug/mouse, ip administered for 11 days and measured on day 12 post treatment by flow cytometric analysis; format: functional, organism-based
Mus musculus [27] = experiment: Antifibrotic activity in bleomycin-induced C57BL/6 mouse model of pulmonary fibrosis assessed as increase in number of PDL2+ alveolar macrophages in lungs at 2 ug/mouse, ip administered for 11 days and measured on day 12 post treatment by flow cytometric analysis; format: functional, organism-based
Mus musculus [28] = experiment: Antifibrotic activity in bleomycin-induced C57BL/6 mouse model of pulmonary fibrosis assessed as increase in number of interstitial macrophages in lungs at 2 ug/mouse, ip administered for 11 days and measured on day 12 post treatment by flow cytometric analysis; format: functional, organism-based
[29] = biological target: 3',5'-cyclic-AMP phosphodiesterase 4D (Homo sapiens) (UniProt Q08499); experiment: Inhibition of PDE4D2 (unknown origin) at 10 uM relative to control
Chain of 3',5'-cyclic-AMP phosphodiesterase 4D (Homo sapiens) (Q08499 whole entry): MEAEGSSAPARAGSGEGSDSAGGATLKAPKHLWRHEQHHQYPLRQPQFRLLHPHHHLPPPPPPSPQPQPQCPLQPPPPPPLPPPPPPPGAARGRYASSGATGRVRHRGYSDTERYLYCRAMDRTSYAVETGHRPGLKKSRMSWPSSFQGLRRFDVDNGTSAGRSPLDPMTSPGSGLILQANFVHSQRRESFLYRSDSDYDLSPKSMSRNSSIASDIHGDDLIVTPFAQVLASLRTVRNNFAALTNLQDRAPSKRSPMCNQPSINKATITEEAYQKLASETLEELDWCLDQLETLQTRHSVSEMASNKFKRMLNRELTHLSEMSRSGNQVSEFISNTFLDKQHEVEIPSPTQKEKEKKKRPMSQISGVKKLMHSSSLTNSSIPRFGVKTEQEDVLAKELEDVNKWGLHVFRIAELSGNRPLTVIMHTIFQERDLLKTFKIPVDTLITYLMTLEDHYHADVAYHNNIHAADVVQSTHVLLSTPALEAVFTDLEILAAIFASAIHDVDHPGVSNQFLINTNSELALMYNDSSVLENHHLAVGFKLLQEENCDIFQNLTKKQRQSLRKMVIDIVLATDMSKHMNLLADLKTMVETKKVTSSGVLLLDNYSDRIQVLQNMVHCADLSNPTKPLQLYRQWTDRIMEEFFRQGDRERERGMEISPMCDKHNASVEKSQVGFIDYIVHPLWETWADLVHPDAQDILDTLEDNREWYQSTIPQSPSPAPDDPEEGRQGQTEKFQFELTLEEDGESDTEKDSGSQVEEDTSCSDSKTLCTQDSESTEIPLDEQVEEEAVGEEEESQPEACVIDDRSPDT

Row | Structure (SMILES) | inhibition [1] | inhibition [2] | inhibition [3] | inhibition (Chitotriosidase-1 [4]) | also measured
1 | N=c1c(C(=O)NCc2cccnc2)cc2c(=O)n3ccccc3nc2n1Cc1ccccc1 | Active | Active | Active | Active | –
2 | Cc1ccc2nc3c(cc(C(=O)N[C@H](C)c4ccccc4)c(=N)n3C[C@H]3CCCO3)c(=O)n2c1 | Active | Active | Active | Active | –
3 | Cc1cccn2c(=O)c3cc(C(=O)NCc4cccnc4)c(=N)n(CC4CCCO4)c3nc12 (configuration not stated) | Active | Active | Active | Active | pKd (Chitinase B [5]): 6.72; Ka [6]: 5.1e+06 M⁻¹; pKd (Chitotriosidase-1 [7]): 5.95; Ka (Chitotriosidase-1 [8]): 895000 M⁻¹; pKi (Chitinase B [9]): 7.24; pKi (Chitinase [10]): 8.05; pKi [11]: 5.86; pKi (Chitotriosidase-1 [12]): 5.71; pKi [13]: 5.01; pKi (Chitotriosidase-1 [14]): 5.95; pKd (Chitinase [15]): 7.07
4 | CCOC(=O)c1cc2c(=O)n3ccccc3nc2n(Cc2ccco2)c1=N | inactive | inactive | inactive | inactive | –
5 | COCCCn1c(=N)c(C(=O)NCc2ccc(C)cc2)cc2c(=O)n3ccccc3nc21 | inactive | inactive | inactive | inactive | –
6 | N=c1c(C(=O)NCC2CCCO2)cc2c(=O)n3ccccc3nc2n1Cc1ccco1 (configuration not stated) | – | – | – | – | inhibition (Chitotriosidase-1 [16]): 100%
7 | COCCCn1c(=N)c(C(=O)N[C@@H](C)c2ccccc2)cc2c(=O)n3ccccc3nc21 | Active | Active | Active | Active | –
8 | COCCCn1c(=N)c(C(=O)NCc2ccc(F)cc2)cc2c(=O)n3ccccc3nc21 | inactive | inactive | inactive | inactive | –
9 | C[C@@H](NC(=O)c1cc2c(=O)n3ccccc3nc2n(C[C@H]2CCCO2)c1=N)c1ccccc1 | Active | Active | Active | Active | –
10 | COCCCn1c(=N)c(C(=O)NCc2cccnc2)cc2c(=O)n3ccccc3nc21 | inactive | inactive | inactive | inactive | –
11 | CNC(=O)c1cc2c(=O)n3cc(C)ccc3nc2n(Cc2cccnc2)c1=N | inactive | inactive | inactive | inactive | –
12 | CC(NC(=O)c1cc2c(=O)n3ccccc3nc2n(Cc2ccccc2)c1=N)c1ccccc1 (configuration not stated) | Active | Active | Active | Active | inhibition (INH) (Mus musculus [17]): 100%; inhibition [18]: 55%; inhibition [19]: 35%; Activity (Mus musculus [20]): inactive; Activity (Mus musculus [21]): inactive; Activity (Mus musculus [22]): inactive; Activity (Mus musculus [23]): inactive; Activity (Mus musculus [24]): inactive; Activity (Mus musculus [25]): Active; Activity (Mus musculus [26]): Active; Activity (Mus musculus [27]): Active; Activity (Mus musculus [28]): Active; inhibition [29]: 87.8%
13 | N=c1c(C(=O)NC2CCCCC2)cc2c(=O)n3ccccc3nc2n1Cc1cccnc1 | inactive | inactive | inactive | inactive | –
14 | Cc1ccc2nc3c(cc(C(=O)NCc4cccnc4)c(=N)n3C[C@H]3CCCO3)c(=O)n2c1 | Active | Active | Active | Active | –
15 | COCCCn1c(=N)c(C(=O)NCc2ccc(OC)cc2)cc2c(=O)n3ccccc3nc21 | inactive | inactive | inactive | inactive | –
16 | COCCCn1c(=N)c(-c2nc3ccccc3s2)cc2c(=O)n3ccccc3nc21 | inactive | inactive | inactive | inactive | –

Further lines, with some results ahead:

Row | inhibition [1] | inhibition [2] | inhibition [3] | inhibition (Chitotriosidase-1 [4]) | Structure (SMILES) | also measured
17 | Active | Active | Active | Active | Cc1cccn2c(=O)c3cc(C(=O)NCc4cccnc4)c(=N)n(Cc4ccc(F)cc4)c3nc12 | –
18 | inactive | inactive | inactive | inactive | Cc1cccn2c(=O)c3cc(C#N)c(=N)n(Cc4ccccc4)c3nc12 | –
19 | inactive | inactive | inactive | inactive | COC(=O)c1cc2c(=O)n3ccccc3nc2n(Cc2cccnc2)c1=N | –
20 | Active | Active | Active | Active | Cc1cccn2c(=O)c3cc(C(=O)NCc4cccnc4)c(=N)n(Cc4ccco4)c3nc12 | –
21 | Active | Active | Active | Active | Cc1cccn2c(=O)c3cc(C(=O)N[C@H](C)c4ccccc4)c(=N)n(C[C@H]4CCCO4)c3nc12 | –
22 | inactive | inactive | inactive | inactive | C=CCn1c(=N)c(C(=O)N2CCN(C)CC2)cc2c(=O)n3cccc(C)c3nc21 | –
23 | inactive | inactive | inactive | inactive | COCCn1c(=N)c(C(=O)NCCN2CCCCC2)cc2c(=O)n3ccccc3nc21 | –
24 | inactive | inactive | inactive | inactive | Cc1cccn2c(=O)c3cc(C#N)c(=N)n(Cc4cccnc4)c3nc12 | –

— ChEMBL document CHEMBL4354842, “A Series of Compounds Bearing a Dipyrido-Pyrimidine Scaffold Acting as Novel Human and Insect Pest Chitinase Inhibitors” (J Med Chem, 2020)
